Measurements taken from ChEMBL document CHEMBL4376815, “The Development Process for Discovery and Clinical Advancement of Modern Antimalarials” (J Med Chem, 2019).

Key:
[1] = Tmax in mouse at 24.6 mg/kg, po and measured up to 24 hrs by LC/MS analysis; assay type: ADME, organism-based; settings: in vivo
[2] = Oral bioavailability in rat at 23.7 mg/kg and measured up to 24 hrs by LC/MS analysis; assay type: ADME, organism-based; settings: in vivo
[3] = test system: Plasmodium falciparum; assay: Antimalarial activity against Plasmodium falciparum K1 infected in human erythrocytes assessed as reduction in [3H]-hypoxanthine incorporation incubated for 48 hrs followed by addition of [3H]-hypoxanthine and measured after 24 hrs by liquid scintillation counting method; assay type: functional, organism-based
[4] = test system: Plasmodium falciparum; assay: Antimalarial activity against Plasmodium falciparum D6 infected in human erythrocytes assessed as reduction in [3H]-hypoxanthine incorporation incubated for 48 hrs followed by addition of [3H]-hypoxanthine and measured after 24 hrs by liquid scintillation counting method; assay type: functional, organism-based
[5] = test system: Plasmodium berghei; assay: Antimalarial activity against Plasmodium berghei infected in NMRI mouse assessed as reduction in parasite growth at 5.3 mg/kg, po administered daily for 3 consecutive days by flow cytometric analysis relative to control; assay type: functional; design: scale not given: the % may be the effect or the level left
[6] = test system: Plasmodium berghei; assay: Antimalarial activity against Plasmodium berghei infected in po dosed NMRI mouse assessed as reduction in parasite growth administered daily for 3 consecutive days by flow cytometric analysis; assay type: functional
[7] = test system: Plasmodium berghei; assay: Antimalarial activity against Plasmodium berghei infected in NMRI mouse assessed as reduction in parasite growth at 30 mg/kg, po administered daily for 3 consecutive days by flow cytometric analysis relative to control; assay type: functional; design: scale not given: the % may be the effect or the level left
[8] = Clearance in Beagle dog at 1 mg/kg, iv by LC-MS/MS analysis; assay type: ADME, organism-based, Canis lupus familiaris; settings: in vivo
[9] = Half life in Beagle dog at 1 mg/kg, iv by LC-MS/MS analysis; settings: in vivo
[10] = Cmax in Wistar Hannover rat at 10 mg/kg, po by LC-MS/MS analysis; assay type: ADME, organism-based; design: dose 10 mg/kg, route oral; settings: in vivo
[11] = Tmax in Beagle dog at 3 mg/kg, po by LC-MS/MS analysis; assay type: ADME, organism-based, Canis lupus familiaris; settings: in vivo
[12] = Oral bioavailability in Wistar Hannover rat at 10 mg/kg by LC-MS/MS analysis; assay type: ADME, organism-based; settings: in vivo
[13] = Cytotoxicity against human THP1 cells assessed as reduction in cell viability after 4 days by XTT assay; assay type: cell-based; settings: THP-1 cells
[14] = test system: Plasmodium falciparum; assay: Antimalarial activity against Plasmodium falciparum infected in human assessed as parasite clearance time at 30 mg/kg, po; assay type: functional
[15] = test system: Plasmodium falciparum; assay: Antimalarial activity against Plasmodium falciparum infected in human assessed as median parasite clearance time at 30 mg/kg, po administered daily for 3 consecutive day and measured on day 5; assay type: functional
[16] = test system: Plasmodium vivax; assay: Antimalarial activity against Plasmodium vivax infected in human assessed as parasite clearance time at 30 mg/kg, po administered daily for 3 consecutive day and measured on day 5; assay type: functional
[17] = in vivo; settings: mouse, po, 24.6 mg/kg
Description: Half life in mouse at 24.6 mg/kg, po and measured up to 24 hrs by LC/MS analysis

[18] = in vivo; settings: rat, po, 23.7 mg/kg
Description: Half life in rat at 23.7 mg/kg, po and measured up to 24 hrs by LC/MS analysis

[19] = Cmax in human at 150 mg, po for 3 days and measured on day 3 by LC-MS/MS analysis; settings: in vivo
[20] = Apparent clearance in human at 300 mg, po and measured up to 96 to 144 hrs by LC-MS/MS analysis; settings: in vivo, read-out: CL(app) (converted)

With `C[C@H]1Cc2c([nH]c3cc(Cl)c(F)cc23)[C@@]2(N1)C(=O)Nc1ccc(Cl)cc12` [CIPARGAMIN] the Tmax [1] was 1 h, the bioavailability [2] was 100% and the EC50 [3] was 0.5 to 1.4 nM. The EC50 [4] was 0.5 to 1.4 nM, the Activity [5] was 99% and the ED50 [6] was 1.2 mg/kg. The ED90 [6] was 2.7 mg/kg, the ED99 [6] was 5.3 mg/kg and the Activity [7] was 90%. It also gave a clearance [8] of 3.35 mL/min/kg, a half-life [9] of 10.9 h and a Cmax [10] of 1210 ng/mL. The Tmax [11] was 1.7 h, the bioavailability [12] was 85% and the CC50 at 96 h [13] was over 10000 nM. The Time [14] was 10 h, the Time [15] was 12 h and the Time [16] was 30 h. For the same molecule, the half-life at 24 h [17] was 10 h, the half-life at 24 h [18] was 27.7 h and the Cmax [19] was 1770 ng/mL. For the same molecule, the CL/F [20] was 91.7 mL/min.
